How the values were obtained:
Type in all cases: in vivo
C57BL/6J mice = assay: TNF-α-induced acute vascular inflammation in mice (leukocyte movement rate and leukocyte-endothelial cell adhesion in mesenteric venules); details: 7 days, 4 h after TNF-α
Procedure: 60 C57BL/6J mice were randomly divided into 6 groups according to body weight: normal control group, model control group, IMM-H007 group, positive control AMPK agonist group metformin, A769662 group, and atorvastatin group, respectively, and were intragastrically administered with physiological saline, IMM-H007 (100 mg/kg), metformin (260 mg/kg), and atorvastatin (lipitor, 10 mg/kg), respectively, and injected intraperitoneally with A769662 (30 mg/kg, which is difficult to absorb by oral administration) for 7 consecutive days. On the 8th day, except that the blank control group was intraperitoneally injected with normal saline, other groups were all intraperitoneally injected with TNF-α (0.3 μg/dose) to induce acute inflammations in the blood vessels. Four hours after the injection of TNF-α, the optic nerve vascular plexus was intravenously injected with 0.05% Rhodamine-6G, and leukocytes were fluorescently labeled with 100 μl. The mice were anesthetized with pentobarbital sodium. The right side of the mice was fixed on a observation table. A small mouth was cut along the abdominal cavity. The mesenteric vascular bed was gently pulled out. The small intestine of the mice was fixed in a observation window. The microscope is turned on to find a clear third-order mesenteric vein under a low power microscope, and then adjusted to 20-fold magnification for observation, after adjusting the brightness and focal length to the optimum, the white light was turned off, the fluorescence was turned on, and a 1 min leukocyte movement video was collected from each vessel segment using the ToumView software of the Dynamic Visual Microvascular Research System (Gene&I-SMC1). The leukocyte movement rate and leukocyte-endothelial cell adhesion number reflect intravascular inflammations and are early signs of endothelial dysfunction.
The leukocyte movement rate was analyzed with image pro 6.0. At least three observation points were selected for each observation field, and at least 9 observation sites were finally counted for each mouse. The mean value was calculated to obtain the average leukocyte movement rate.

VCAM-1 = assay: Serum inflammatory factor VCAM-1 in ApoE−/− mice (ELISA)
TNF-α = assay: Serum inflammatory factor TNF-α in ApoE−/− mice (ELISA); design: unit not given here
Procedure: After 1 week of adaptive feeding, the animals were randomly divided into 7 groups according to body weight: normal control group, model control group A769662 (30 mg/kg) administration group, metformin (260 mg/kg) administration group, IMM-H007 low, medium, and high administration groups (50, 100, 200 mg/kg), 8 in each group, and were given a high-fat diet (78.6% basal diet, 10% lard, 1.0% cholesterol, 10% egg yolk powder, and 0.4% bile salt), […] body weight, and were continuously administered and fed for 8 weeks to establish an atherosclerosis model.
(2) Effect of IMM-H007 on Serum Inflammatory Factors TNF-α and VCAM-1 in ApoE−/− Mice
Operated according to kit instructions

ApoE−/− mice [1] = assay: Intravascular inflammatory response in high-fat-fed ApoE−/− mice (chronic inflammation model); details: 8 weeks, high-fat diet
Procedure: After 1 week of adaptive feeding, the animals were randomly divided into 4 groups according to body weight: model control group, A769662 (30 mg/kg, ip), metformin (260 mg/kg), IMM-H007 (100 mg/kg) administration groups, 7 in each group, and were given a high-fat diet (78.6% basal diet, 10% lard, 1.00%/cholesterol, 10% egg yolk powder, and 0.4% bile salt), and simultaneously administered intragastrically at a dose of 0.1 ml/10 g body weight, and were continuously administered and fed for 8 weeks. The mice were anesthetized with pentobarbital sodium (60 mg/kg body weight). The right side of the mice was fixed on a observation table. A small mouth was cut along the abdominal cavity. The mesenteric vascular bed was gently pulled out. The small intestine of the mice was fixed in an observation window, the microscope is turned on to find a clear third-order mesenteric vein under a low power microscope, and then adjusted to 20-fold magnification for observation, after adjusting the brightness and focal length to the optimum, the white light was turned off, the fluorescence was turned on, and the leukocyte movement in the blood vessel could be observed. A 1 min leukocyte movement video was collected from each vessel segment using the ToumView software of the Dynamic Visual Microvascular Research System (Gene&I-SMC1). Leukocyte movement rate and number of leukocyte-endothelial cells adhesion were analyzed using image pro 6.0.
(1) Leukocyte Movement Rate and (2) Number of Leukocyte-Endothelial Cell Adhesion

ApoE−/− mice [2] = assay: Plaque area in ApoE−/− mice (oil red O staining of aorta and aortic root); details: for plaque area, Overall length of aorta: in % (unit assumed)
Procedure: After 1 week of adaptive feeding, the animals were randomly divided into 7 groups according to body weight: normal control group, model control group A769662 (30 mg/kg) administration group, metformin (260 mg/kg) administration group, IMM-H007 low, medium, and high administration groups (50, 100, 200 mg/kg), 8 in each group, and were given a high-fat diet (78.6% basal diet, 10% lard, 1.0% cholesterol, 10% egg yolk powder, and 0.4% bile salt), and simultaneously administered intragastrically at a dose of 0.1 ml/10 g body weight, […] model.
The aortic root was stained with oil red O and the overall length of the aorta was stained with oil red O. The pathological images were analyzed by Photoshop, Image 1, and Image-Pro Plus softwares. The pathological grading data were statistically analyzed using Chi-square test.

For `N#Cc1c(O)c2c(-c3ccc(-c4ccccc4O)cc3)csc2[nH]c1=O` [A769662], the Leukocyte movement rate (C57BL/6J mice; 30 mg/kg, ip) was 24.9 ± 3.8 µm/s, the “Number of leukocyte adhesion” value (C57BL/6J mice; 30 mg/kg, ip) was 3.5 ± 1.8 number/200 micron and the “serum VCAM-1” value (VCAM-1; 30 mg/kg, ip) was 233.1 ± 18.3. The “serum TNF-α” value (TNF-α; 30 mg/kg, ip) was 247.3 ± 49.7, the Leukocyte movement rate (ApoE−/− mice [1]; 30 mg/kg, ip) was 28.7 ± 7 µm/s and the “Number of leukocyte adhesion” value (ApoE−/− mice [1]; 30 mg/kg, ip) was 13.7 ± 4.9 number/200 micron. For the same compound, the “plaque area, Frozen section of root of aorta %” value (ApoE−/− mice [2]; 30 mg/kg, ip) was 3.02 ± 0.89 % and the “plaque area, Overall length of aorta” value (ApoE−/− mice [2]; 30 mg/kg, ip) was 2.61 ± 1.80.
`CC(C)c1c(C(=O)Nc2ccccc2)c(-c2ccccc2)c(-c2ccc(F)cc2)n1CC[C@@H](O)C[C@@H](O)CC(=O)O` [Atorvastatin, atorvastatin] showed a Leukocyte movement rate (C57BL/6J mice; 10 mg/kg intragastric) of 20.6 µm/s and a Number of leukocyte adhesion (C57BL/6J mice; 10 mg/kg intragastric) of 5.3 number/200 µm.
In the case of `CN(C)C(=N)N=C(N)N` [Metformin, metformin], the Leukocyte movement rate (C57BL/6J mice; 260 mg/kg intragastric) is reported as 21.5 µm/s, the “Number of leukocyte adhesion” value (C57BL/6J mice; 260 mg/kg intragastric) is reported as 5.1 ± 2.2 number/200 micron and the “serum VCAM-1” value (VCAM-1; 260 mg/kg) is reported as 234.9 ± 16.7. For the same compound, the “serum TNF-α” value (TNF-α; 260 mg/kg) was 229.1 ± 35.2, the Leukocyte movement rate (ApoE−/− mice [1]; 260 mg/kg) was 21.4 µm/s and the “Number of leukocyte adhesion” value (ApoE−/− mice [1]; 260 mg/kg) was 16.3 ± 6.8 number/200 micron. The “plaque area, Frozen section of root of aorta %” value (ApoE−/− mice [2]; 260 mg/kg) was 3.73 ± 1.15 % and the “plaque area, Overall length of aorta” value (ApoE−/− mice [2]; 260 mg/kg) was 3.13 ± 1.76.

Reference: US11324768B2, “Applications of triacetyl-3-hydroxyl phenyl adenosine in treating vascular inflammations or improving vascular endothelium functions” (priority 2016, dated 2022)
